# In patent US12723063B2, “GIPR-agonist compounds” (Eli Lilly and Company, priority 2019, dated 2026):
# Tests used:
# [1] = system: CD4+ T cells (CD8+ T cell-depleted PBMCs); test: CD4+ T cell proliferation assay (immunogenicity assessment); format: cell-based, human; details: 0.33 μM, 7 days, 10 healthy donors; positive response CDI>2.5
# Protocol: Protein therapeutics that induce less than 30% positive response in the CD4+ T cell proliferation assay are associated with a low risk of immunogenicity. Briefly, to assess the propensity for a clinical immunogenic response to the compounds of Examples 1, 2, 3, 5, and 6, CD8+ T cell-depleted peripheral blood mononuclear cells (PBMCs) are prepared and labeled with carboxyfluorescein diacetate succinimidyl ester (CFSE; Invitrogen) from a cohort of 10 healthy donors with diverse human leukocyte antigen (HLA) class II haplotypes. Each donor is tested in triplicate with 2.0 mL media control, keyhole limpet hemocyanin (KLH: 0.33 μM), and the compounds of Examples 1, 2, 3, 5, and 6 (0.33 μM). Cultures are incubated for 7 days at 37° C. with 5% CO2. On day 7, samples are analyzed by flow cytometry using a BD LSR II Fortessa (Becton Dickinson; Franklin Lakes, NJ), equipped with a high throughput sampler (HTS). Data is analyzed using FlowJo® Software (FlowJo, LLC/TreeStar; Ashland, OR).
# • Cell Division Index (“CDI”): proportion of divided CD4+ T cells to the total number of CD4+ T cells in stimulated versus unstimulated samples.
# [2] = Pharmacokinetics in male cynomolgus monkeys, single subcutaneous administration; format: in vivo, cynomolgus monkey; details: 50 nmol/kg single SC, mean n = 2; for CL/F / Tmax / half-life: cynomolgus monkey, plasma
# Protocol: The pharmacokinetics of select Examples are evaluated following a single subcutaneous administration of 50 nmol/kg to male cynomolgus monkeys. Blood samples are collected over 504 hours and resulting individual plasma concentrations are used to calculate pharmacokinetic parameters. Peptide plasma (K3 EDTA) concentrations are determined using a qualified LC/MS method that measured the intact mass of the compound. Each peptide and an analog as an internal standard are extracted from 100% cynomolgus monkey plasma using a protein precipitation method. Instruments are combined for LC/MS detection.
# [3] = Pharmacokinetics in male Sprague Dawley rats, single subcutaneous administration; format: in vivo, Sprague Dawley rat; details: 100 nmol/kg single SC, mean n = 3 (example 3 n = 1); for CL/F / Tmax / half-life: rat, plasma
# Protocol: The pharmacokinetics of select Examples are evaluated following a single subcutaneous (SC) administration of 100 nmol/kg to male Sprague Dawley rats. Blood samples are collected over 168 hours following SC administration. Pharmacokinetic parameters are calculated using individual plasma concentrations. A qualified LC/MS method that measures the intact mass of the Example is used to determine plasma (K3 EDTA) concentrations. Each peptide and an analog as an internal standard are extracted from 100% rat plasma using a protein precipitation method. Instruments are combined for LC/MS detection. Mean pharmacokinetic parameters for the Examples are shown in […]
# human GLP-1R = biological target: T1, human GLP-1R (Homo sapiens, UniProt P43220); test: [125I]-GLP-1 binding, SPA with WGA beads, 0.1% bacitracin; details: geometric mean, read-out: hGLP1R Ki
# T1 construct: expressed in transfected cells; crude membranes
# T1 sequence (P43220 24-463): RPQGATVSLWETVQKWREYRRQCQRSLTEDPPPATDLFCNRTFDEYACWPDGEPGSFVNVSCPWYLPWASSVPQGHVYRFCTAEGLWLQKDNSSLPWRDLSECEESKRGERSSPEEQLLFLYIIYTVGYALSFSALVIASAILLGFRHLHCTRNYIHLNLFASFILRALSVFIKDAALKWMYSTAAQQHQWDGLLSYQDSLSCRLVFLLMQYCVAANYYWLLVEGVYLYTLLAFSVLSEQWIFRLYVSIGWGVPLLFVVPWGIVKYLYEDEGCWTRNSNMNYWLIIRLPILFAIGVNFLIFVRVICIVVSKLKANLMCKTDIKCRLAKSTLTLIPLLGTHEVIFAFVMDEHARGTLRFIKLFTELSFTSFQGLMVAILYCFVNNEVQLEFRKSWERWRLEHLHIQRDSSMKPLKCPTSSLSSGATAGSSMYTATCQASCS
# Summary of the method: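 Binding buffer was 25 mM HEPES pH 7.4 with 2.5 mM CaCl2, 1 mM MgCl2, 0.1% (w/v) bacitracin, 0.003% Tween-20 and EDTA-free protease inhibitors. Four-parameter regression gave IC50, converted to Ki (geometric mean, SEM, n independent days).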
smiles,measurement,setting,value
CC[C@H](C)[C@H](NC(=O)[C@H](Cc1ccccc1)NC(=O)[C@@H](NC(=O)CNC(=O)[C@H](CCC(=O)O)NC(=O)C(C)(C)NC(=O)[C@@H](N)Cc1ccc(O)cc1)[C@@H](C)O)C(=O)N[C@@H](CO)C(=O)N[C@@H](CC(=O)O)C(=O)N[C@@H](Cc1ccc(O)cc1)C(=O)N[C@@H](CO)C(=O)N[C@H](C(=O)N[C@@](C)(CC(C)C)C(=O)N[C@@H](CC(C)C)C(=O)N[C@@H](CC(=O)O)C(=O)N[C@@H](CCCCN)C(=O)N[C@@H](CCCCNC(=O)COCCOCCNC(=O)COCCOCCNC(=O)CC[C@H](NC(=O)CCCCCCCCCCCCCCCCCCC(=O)O)C(=O)O)C(=O)N[C@@H](Cc1c[nH]cn1)C(=O)N[C@@H](CCC(N)=O)C(=O)NC(C)(C)C(=O)N[C@@H](CC(=O)O)C(=O)N[C@@H](Cc1ccccc1)C(=O)N[C@H](C(=O)N[C@@H](CCC(=O)O)C(=O)N[C@@H](Cc1ccncc1)C(=O)N[C@@H](CC(C)C)C(=O)N[C@@H](CC(C)C)C(=O)N[C@@H](CCC(=O)O)C(=O)N[C@@H](C)C(=O)NCC(=O)N1CCC[C@H]1C(=O)N[C@@H](CO)C(=O)N[C@@H](CO)C(=O)NCC(=O)N[C@@H](C)C(=O)N1CCC[C@H]1C(=O)N1CCC[C@H]1C(=O)N1CCC[C@H]1C(=O)N[C@@H](CO)C(N)=O)C(C)C)[C@@H](C)CC [Example 3],% Donor Response (n = 10),[1],0%
same,AUCInf/Dose,[2],1764 hr*kg*nmol/L/nmol
same,Cmax/Dose,[2],12.1 kg*nmol/L/nmol
same,CL/F,[2],0.57 mL/h/kg
same,Tmax,[2],60 h
same,half-life,[2],88.8 h
same,AUCInf/Dose,[3],130 hr*kg*nmol/L/nmol
same,Cmax/Dose,[3],3.03 kg*nmol/L/nmol
same,CL/F,[3],7.67 mL/h/kg
same,Tmax,[3],12 h
same,half-life,[3],24.9 h
same,Ki,human GLP-1R,0.381 µM
CC[C@H](C)[C@H](NC(=O)[C@H](CO)NC(=O)[C@H](Cc1ccc(O)cc1)NC(=O)[C@H](CC(=O)O)NC(=O)[C@H](CO)NC(=O)[C@@H](NC(=O)[C@H](Cc1ccccc1)NC(=O)[C@@H](NC(=O)CNC(=O)[C@H](CCC(=O)O)NC(=O)[C@@H](C)NC(=O)[C@@H](N)Cc1ccc(O)cc1)[C@@H](C)O)[C@@H](C)CC)C(=O)N[C@@H](CC(C)C)C(=O)N[C@@H](CC(C)C)C(=O)N[C@@H](CC(=O)O)C(=O)N[C@@H](CCCCN)C(=O)N[C@@H](CCCCNC(=O)COCCOCCNC(=O)COCCOCCNC(=O)CC[C@H](NC(=O)CCCCCCCCCCCCCCCCC(=O)O)C(=O)O)C(=O)N[C@@H](C)C(=O)N[C@@H](CCC(N)=O)C(=O)NC(C)(C)C(=O)N[C@@H](CC(=O)O)C(=O)N[C@@H](Cc1ccccc1)C(=O)N[C@H](C(=O)N[C@@H](CC(N)=O)C(=O)N[C@@H](Cc1c[nH]c2ccccc12)C(=O)N[C@@H](CC(C)C)C(=O)N[C@@H](CC(C)C)C(=O)N[C@@H](C)C(=O)N[C@@H](CCC(N)=O)C(=O)NCC(=O)N1CCC[C@H]1C(=O)N[C@@H](CO)C(=O)N[C@@H](CO)C(=O)NCC(=O)N[C@@H](C)C(=O)N1CCC[C@H]1C(=O)N1CCC[C@H]1C(=O)N1CCC[C@H]1C(=O)N[C@@H](CO)C(N)=O)C(C)C [Example 2],% Donor Response (n = 10),[1],10%
same,AUCInf/Dose,[2],624 hr*kg*nmol/L/nmol
same,Cmax/Dose,[2],6.92 kg*nmol/L/nmol
same,CL/F,[2],1.61 mL/h/kg
same,Tmax,[2],6 h
same,half-life,[2],51.8 h
same,AUCInf/Dose,[3],304 hr*kg*nmol/L/nmol
same,Cmax/Dose,[3],5.47 kg*nmol/L/nmol
same,CL/F,[3],3.3 mL/h/kg
same,Tmax,[3],12 h
same,half-life,[3],26.9 h
same,Ki,human GLP-1R,0.0779 µM
CC[C@H](C)[C@H](NC(=O)[C@H](CCCN)NC(=O)[C@H](CC(=O)O)NC(=O)[C@H](CC(C)C)NC(=O)[C@](C)(CC(C)C)NC(=O)[C@@H](NC(=O)[C@H](CO)NC(=O)[C@H](Cc1ccc(O)cc1)NC(=O)[C@H](CC(=O)O)NC(=O)[C@H](CO)NC(=O)[C@@H](NC(=O)[C@H](Cc1ccccc1)NC(=O)[C@@H](NC(=O)CNC(=O)[C@H](CCC(=O)O)NC(=O)C(C)(C)NC(=O)[C@@H](N)Cc1ccc(O)cc1)[C@@H](C)O)[C@@H](C)CC)[C@@H](C)CC)C(=O)N[C@@H](Cc1c[nH]cn1)C(=O)N[C@@H](CCC(N)=O)C(=O)NC(C)(C)C(=O)N[C@@H](CCC(=O)O)C(=O)N[C@@H](Cc1ccccc1)C(=O)N[C@H](C(=O)N[C@H](CCC(=O)O)C(=O)N[C@@H](Cc1ccc(O)cc1)C(=O)N[C@@H](CCCCNC(=O)COCCOCCNC(=O)COCCOCCNC(=O)CC[C@H](NC(=O)CCCCCCCCCCCCCCCCC(=O)O)C(=O)O)C(=O)N[C@@H](CC(C)C)C(=O)N[C@@H](CCC(=O)O)C(=O)NCC(=O)NCC(=O)N1CCC[C@H]1C(=O)N[C@@H](CO)C(=O)N[C@@H](CO)C(=O)NCC(=O)N[C@@H](C)C(=O)N1CCC[C@H]1C(=O)N1CCC[C@H]1C(=O)N1CCC[C@H]1C(=O)N[C@@H](CO)C(N)=O)C(C)C [Example 7],AUCInf/Dose,[2],1603 hr*kg*nmol/L/nmol
same,Cmax/Dose,[2],10.1 kg*nmol/L/nmol
same,CL/F,[2],0.63 mL/h/kg
same,Tmax,[2],9 h
same,half-life,[2],109 h
same,Ki,human GLP-1R,> 0.913 µM
CC[C@H](C)[C@H](NC(=O)[C@H](CCCN)NC(=O)[C@H](CC(=O)O)NC(=O)[C@H](CC(C)C)NC(=O)[C@](C)(CC(C)C)NC(=O)[C@@H](NC(=O)[C@H](CO)NC(=O)[C@H](Cc1ccc(O)cc1)NC(=O)[C@H](CC(=O)O)NC(=O)[C@H](CO)NC(=O)[C@@H](NC(=O)[C@H](Cc1ccccc1)NC(=O)[C@@H](NC(=O)CNC(=O)[C@H](CCC(=O)O)NC(=O)C(C)(C)NC(=O)[C@@H](N)Cc1ccc(O)cc1)[C@@H](C)O)[C@@H](C)CC)[C@@H](C)CC)C(=O)N[C@@H](Cc1c[nH]cn1)C(=O)N[C@@H](CCC(N)=O)C(=O)NC(C)(C)C(=O)N[C@@H](CC(=O)O)C(=O)N[C@@H](Cc1ccccc1)C(=O)N[C@H](C(=O)N[C@@H](CCC(=O)O)C(=O)N[C@@H](Cc1ccc(O)cc1)C(=O)N[C@@H](CCCCNC(=O)COCCOCCNC(=O)COCCOCCNC(=O)CC[C@H](NC(=O)CCCCCCCCCCCCCCCCCCC(=O)O)C(=O)O)C(=O)N[C@@H](CC(C)C)C(=O)N[C@@H](CCC(=O)O)C(=O)NCC(=O)NCC(=O)N1CCC[C@H]1C(=O)N[C@@H](CO)C(=O)N[C@@H](CO)C(=O)NCC(=O)N[C@@H](C)C(=O)N1CCC[C@H]1C(=O)N1CCC[C@H]1C(=O)N1CCC[C@H]1C(=O)N[C@@H](CO)C(N)=O)C(C)C [Example 6],% Donor Response (n = 10),[1],0%
same,AUCInf/Dose,[2],1382 hr*kg*nmol/L/nmol
same,Cmax/Dose,[2],7.83 kg*nmol/L/nmol
same,CL/F,[2],0.77 mL/h/kg
same,Tmax,[2],6 h
same,half-life,[2],129 h
same,AUCInf/Dose,[3],271 hr*kg*nmol/L/nmol
same,Cmax/Dose,[3],4.07 kg*nmol/L/nmol
same,CL/F,[3],3.69 mL/h/kg
same,half-life,[3],34.8 h
same,Ki,human GLP-1R,0.571 µM
